Results reported in patent US20170045529A1, “METHODS OF MEASURING ANTIGEN-SPECIFIC T CELLS” (ImmusanT, Inc., priority 2014, published 2017).
Non-standard residues stand in square brackets, D forms with d. pGlu = O=C1CC[C@@H](C(=O)O)N1

How the values were obtained:
Format in all cases: cell-based, human
whole blood [1] = assay: Whole blood IP-10 release to peptide pools and individual peptides, MAGPIX multiplex bead assay (Example 3); conditions: Table 10C, 10 uM
whole blood [2] = assay: Whole blood IFN-γ release to peptide pools and individual peptides, MAGPIX multiplex bead assay (Example 3); conditions: 10 uM
whole blood [3] = assay: Whole blood IL-2 release to peptide pools and individual peptides, MAGPIX multiplex bead assay (Example 3); conditions: 10 uM
[4] = Subject 1, day 0 since commencing oral challenge
[5] = Subject 1, day 6 since commencing oral challenge
[6] = Subject 2, day 0 since commencing oral challenge
[7] = Subject 2, day 6 since commencing oral challenge
[8] = Subject 6, day 0 since commencing oral challenge
[9] = Subject 6, day 6 since commencing oral challenge
[10] = Subject 7, day 0 since commencing oral challenge
[11] = Subject 7, day 6 since commencing oral challenge
[12] = Subject 1 (HLA-DQ 2.5, 8), day 0 of oral challenge
[13] = Subject 1 (HLA-DQ 2.5, 8), day 6 of oral challenge
[14] = Subject 2 (HLA-DQ 2.5, 8), day 0 of oral challenge
[15] = Subject 2 (HLA-DQ 2.5, 8), day 6 of oral challenge
[16] = Subject 6 (HLA-DQ 2.5), day 0 of oral challenge
[17] = Subject 6 (HLA-DQ 2.5), day 6 of oral challenge
[18] = Subject 7 (HLA-DQ 2.5, 8), day 0 of oral challenge
[19] = Subject 7 (HLA-DQ 2.5, 8), day 6 of oral challenge

## (pE)LQPFPQPELPYPQPQ-NH2 ([pGlu]LQPFPQPELPYPQPQ-NH2; SMILES CC(C)C[C@H](NC(=O)[C@@H]1CCC(=O)N1)C(=O)N[C@@H](CCC(N)=O)C(=O)N1CCC[C@H]1C(=O)N[C@@H](Cc1ccccc1)C(=O)N1CCC[C@H]1C(=O)N[C@@H](CCC(N)=O)C(=O)N1CCC[C@H]1C(=O)N[C@@H](CCC(=O)O)C(=O)N[C@@H](CC(C)C)C(=O)N1CCC[C@H]1C(=O)N[C@@H](Cc1ccc(O)cc1)C(=O)N1CCC[C@H]1C(=O)N[C@@H](CCC(N)=O)C(=O)N1CCC[C@H]1C(=O)N[C@@H](CCC(N)=O)C(N)=O)
Whole blood [1]; [4]
  Whole blood IP-10 release, Concentration: 201 pg/mL
  Whole blood IP-10 release, Fold-change over medium only: 0.76
Whole blood [1]; [5]
  Whole blood IP-10 release, Concentration: 384 pg/mL
  Whole blood IP-10 release, Fold-change over medium only: 1.15
Whole blood [1]; [6]
  Whole blood IP-10 release, Concentration: 320 pg/mL
  Whole blood IP-10 release, Fold-change over medium only: 1.20
Whole blood [1]; [7]
  Whole blood IP-10 release, Concentration: 1844 pg/mL
  Whole blood IP-10 release, Fold-change over medium only: 5.90
Whole blood [1]; [8]
  Whole blood IP-10 release, Concentration: 1616 pg/mL
  Whole blood IP-10 release, Fold-change over medium only: 5.83
Whole blood [1]; [9]
  Whole blood IP-10 release, Concentration: 10000 pg/mL
  Whole blood IP-10 release, Fold-change over medium only: 49.76
Whole blood [1]; [10]
  Whole blood IP-10 release, Concentration: 977 pg/mL
  Whole blood IP-10 release, Fold-change over medium only: 1.32
Whole blood [1]; [11]
  Whole blood IP-10 release, Concentration: 3293 pg/mL
  Whole blood IP-10 release, Fold-change over medium only: 3.69
Whole blood [2]; [12]
  Whole blood IFNg release, Concentration: 39 pg/mL
  Whole blood IFNg release, Fold-change over medium only: 0.71
Whole blood [2]; [13]
  Whole blood IFNg release, Concentration: 55 pg/mL
  Whole blood IFNg release, Fold-change over medium only: 0.84
Whole blood [2]; [14]
  Whole blood IFNg release, Concentration: 4.1 pg/mL
  Whole blood IFNg release, Fold-change over medium only: 1.06
Whole blood [2]; [15]
  Whole blood IFNg release, Concentration: 13.9 pg/mL
  Whole blood IFNg release, Fold-change over medium only: 2.85
Whole blood [2]; [16]
  Whole blood IFNg release, Concentration: 102 pg/mL
  Whole blood IFNg release, Fold-change over medium only: 1.05
Whole blood [2]; [17]
  Whole blood IFNg release, Concentration: 200 pg/mL
  Whole blood IFNg release, Fold-change over medium only: 2.03
Whole blood [2]; [18]
  Whole blood IFNg release, Concentration: 407 pg/mL
  Whole blood IFNg release, Fold-change over medium only: 1.71
Whole blood [2]; [19]
  Whole blood IFNg release, Concentration: 194 pg/mL
  Whole blood IFNg release, Fold-change over medium only: 1.29
Whole blood [3]; [12]
  Whole blood IL-2 release, Concentration: 3.2 pg/mL
  Whole blood IL-2 release, Fold-change over medium only: 1.00
Whole blood [3]; [13]
  Whole blood IL-2 release, Concentration: 3.2 pg/mL
  Whole blood IL-2 release, Fold-change over medium only: 1.00
Whole blood [3]; [14]
  Whole blood IL-2 release, Concentration: 3.2 pg/mL
  Whole blood IL-2 release, Fold-change over medium only: 1.00
Whole blood [3]; [15]
  Whole blood IL-2 release, Concentration: 12.2 pg/mL
  Whole blood IL-2 release, Fold-change over medium only: 3.82
Whole blood [3]; [16]
  Whole blood IL-2 release, Concentration: 12.5 pg/mL
  Whole blood IL-2 release, Fold-change over medium only: 2.52
Whole blood [3]; [17]
  Whole blood IL-2 release, Concentration: 88.5 pg/mL
  Whole blood IL-2 release, Fold-change over medium only: 20.88
Whole blood [3]; [18]
  Whole blood IL-2 release, Concentration: 144.4 pg/mL
  Whole blood IL-2 release, Fold-change over medium only: 2.30
Whole blood [3]; [19]
  Whole blood IL-2 release, Concentration: 71.2 pg/mL
  Whole blood IL-2 release, Fold-change over medium only: 1.69

## (pE)PEQPIPEQPQPYPQQ-NH2 ([pGlu]PEQPIPEQPQPYPQQ-NH2; SMILES CC[C@H](C)[C@H](NC(=O)[C@@H]1CCCN1C(=O)[C@H](CCC(N)=O)NC(=O)[C@H](CCC(=O)O)NC(=O)[C@@H]1CCCN1C(=O)[C@@H]1CCC(=O)N1)C(=O)N1CCC[C@H]1C(=O)N[C@@H](CCC(=O)O)C(=O)N[C@@H](CCC(N)=O)C(=O)N1CCC[C@H]1C(=O)N[C@@H](CCC(N)=O)C(=O)N1CCC[C@H]1C(=O)N[C@@H](Cc1ccc(O)cc1)C(=O)N1CCC[C@H]1C(=O)N[C@@H](CCC(N)=O)C(=O)N[C@@H](CCC(N)=O)C(N)=O)
Whole blood [1]; [4]
  Whole blood IP-10 release, Concentration: 235 pg/mL
  Whole blood IP-10 release, Fold-change over medium only: 0.89
Whole blood [1]; [5]
  Whole blood IP-10 release, Concentration: 325 pg/mL
  Whole blood IP-10 release, Fold-change over medium only: 0.97
Whole blood [1]; [6]
  Whole blood IP-10 release, Concentration: 336 pg/mL
  Whole blood IP-10 release, Fold-change over medium only: 1.26
Whole blood [1]; [7]
  Whole blood IP-10 release, Concentration: 1269 pg/mL
  Whole blood IP-10 release, Fold-change over medium only: 4.06
Whole blood [1]; [8]
  Whole blood IP-10 release, Concentration: 3409 pg/mL
  Whole blood IP-10 release, Fold-change over medium only: 12.30
Whole blood [1]; [9]
  Whole blood IP-10 release, Concentration: 10000 pg/mL
  Whole blood IP-10 release, Fold-change over medium only: 49.76
Whole blood [1]; [10]
  Whole blood IP-10 release, Concentration: 713 pg/mL
  Whole blood IP-10 release, Fold-change over medium only: 0.96
Whole blood [1]; [11]
  Whole blood IP-10 release, Concentration: 2549 pg/mL
  Whole blood IP-10 release, Fold-change over medium only: 2.86
Whole blood [2]; [12]
  Whole blood IFNg release, Concentration: 42 pg/mL
  Whole blood IFNg release, Fold-change over medium only: 0.76
Whole blood [2]; [13]
  Whole blood IFNg release, Concentration: 72 pg/mL
  Whole blood IFNg release, Fold-change over medium only: 1.09
Whole blood [2]; [14]
  Whole blood IFNg release, Concentration: 3.3 pg/mL
  Whole blood IFNg release, Fold-change over medium only: 0.85
Whole blood [2]; [15]
  Whole blood IFNg release, Concentration: 8.6 pg/mL
  Whole blood IFNg release, Fold-change over medium only: 1.77
Whole blood [2]; [16]
  Whole blood IFNg release, Concentration: 96 pg/mL
  Whole blood IFNg release, Fold-change over medium only: 0.99
Whole blood [2]; [17]
  Whole blood IFNg release, Concentration: 278 pg/mL
  Whole blood IFNg release, Fold-change over medium only: 2.84
Whole blood [2]; [18]
  Whole blood IFNg release, Concentration: 170 pg/mL
  Whole blood IFNg release, Fold-change over medium only: 0.71
Whole blood [2]; [19]
  Whole blood IFNg release, Concentration: 102 pg/mL
  Whole blood IFNg release, Fold-change over medium only: 0.68
Whole blood [3]; [12]
  Whole blood IL-2 release, Concentration: 3.2 pg/mL
  Whole blood IL-2 release, Fold-change over medium only: 1.00
Whole blood [3]; [13]
  Whole blood IL-2 release, Concentration: 3.2 pg/mL
  Whole blood IL-2 release, Fold-change over medium only: 1.00
Whole blood [3]; [14]
  Whole blood IL-2 release, Concentration: 3.2 pg/mL
  Whole blood IL-2 release, Fold-change over medium only: 1.00
Whole blood [3]; [15]
  Whole blood IL-2 release, Concentration: 22.4 pg/mL
  Whole blood IL-2 release, Fold-change over medium only: 7.00
Whole blood [3]; [16]
  Whole blood IL-2 release, Concentration: 23.3 pg/mL
  Whole blood IL-2 release, Fold-change over medium only: 4.71
Whole blood [3]; [17]
  Whole blood IL-2 release, Concentration: 134.3 pg/mL
  Whole blood IL-2 release, Fold-change over medium only: 31.67
Whole blood [3]; [18]
  Whole blood IL-2 release, Concentration: 106.1 pg/mL
  Whole blood IL-2 release, Fold-change over medium only: 1.69
Whole blood [3]; [19]
  Whole blood IL-2 release, Concentration: 27.8 pg/mL
  Whole blood IL-2 release, Fold-change over medium only: 0.66

## (pE)QPFPQPEQPFPWQP-NH2 ([pGlu]QPFPQPEQPFPWQP-NH2; SMILES NC(=O)CC[C@H](NC(=O)[C@H](Cc1c[nH]c2ccccc12)NC(=O)[C@@H]1CCCN1C(=O)[C@H](Cc1ccccc1)NC(=O)[C@@H]1CCCN1C(=O)[C@H](CCC(N)=O)NC(=O)[C@H](CCC(=O)O)NC(=O)[C@@H]1CCCN1C(=O)[C@H](CCC(N)=O)NC(=O)[C@@H]1CCCN1C(=O)[C@H](Cc1ccccc1)NC(=O)[C@@H]1CCCN1C(=O)[C@H](CCC(N)=O)NC(=O)[C@@H]1CCC(=O)N1)C(=O)N1CCC[C@H]1C(N)=O)
Whole blood [1]; [4]
  Whole blood IP-10 release, Concentration: 218 pg/mL
  Whole blood IP-10 release, Fold-change over medium only: 0.82
Whole blood [1]; [5]
  Whole blood IP-10 release, Concentration: 501 pg/mL
  Whole blood IP-10 release, Fold-change over medium only: 1.49
Whole blood [1]; [6]
  Whole blood IP-10 release, Concentration: 376 pg/mL
  Whole blood IP-10 release, Fold-change over medium only: 1.42
Whole blood [1]; [7]
  Whole blood IP-10 release, Concentration: 1140 pg/mL
  Whole blood IP-10 release, Fold-change over medium only: 3.65
Whole blood [1]; [8]
  Whole blood IP-10 release, Concentration: 1934 pg/mL
  Whole blood IP-10 release, Fold-change over medium only: 6.98
Whole blood [1]; [9]
  Whole blood IP-10 release, Concentration: 10000 pg/mL
  Whole blood IP-10 release, Fold-change over medium only: 49.76
Whole blood [1]; [10]
  Whole blood IP-10 release, Concentration: 900 pg/mL
  Whole blood IP-10 release, Fold-change over medium only: 1.21
Whole blood [1]; [11]
  Whole blood IP-10 release, Concentration: 10000 pg/mL
  Whole blood IP-10 release, Fold-change over medium only: 11.21
Whole blood [2]; [12]
  Whole blood IFNg release, Concentration: 60 pg/mL
  Whole blood IFNg release, Fold-change over medium only: 1.09
Whole blood [2]; [13]
  Whole blood IFNg release, Concentration: 62 pg/mL
  Whole blood IFNg release, Fold-change over medium only: 0.95
Whole blood [2]; [14]
  Whole blood IFNg release, Concentration: 4.5 pg/mL
  Whole blood IFNg release, Fold-change over medium only: 1.19
Whole blood [2]; [15]
  Whole blood IFNg release, Concentration: 6.4 pg/mL
  Whole blood IFNg release, Fold-change over medium only: 1.32
Whole blood [2]; [16]
  Whole blood IFNg release, Concentration: 94 pg/mL
  Whole blood IFNg release, Fold-change over medium only: 0.98
Whole blood [2]; [17]
  Whole blood IFNg release, Concentration: 258 pg/mL
  Whole blood IFNg release, Fold-change over medium only: 2.63
Whole blood [2]; [18]
  Whole blood IFNg release, Concentration: 158 pg/mL
  Whole blood IFNg release, Fold-change over medium only: 0.66
Whole blood [2]; [19]
  Whole blood IFNg release, Concentration: 150 pg/mL
  Whole blood IFNg release, Fold-change over medium only: 1.00
Whole blood [3]; [12]
  Whole blood IL-2 release, Concentration: 3.2 pg/mL
  Whole blood IL-2 release, Fold-change over medium only: 1.00
Whole blood [3]; [13]
  Whole blood IL-2 release, Concentration: 3.2 pg/mL
  Whole blood IL-2 release, Fold-change over medium only: 1.00
Whole blood [3]; [14]
  Whole blood IL-2 release, Concentration: 3.2 pg/mL
  Whole blood IL-2 release, Fold-change over medium only: 1.00
Whole blood [3]; [15]
  Whole blood IL-2 release, Concentration: 5.2 pg/mL
  Whole blood IL-2 release, Fold-change over medium only: 1.61
Whole blood [3]; [16]
  Whole blood IL-2 release, Concentration: 17.9 pg/mL
  Whole blood IL-2 release, Fold-change over medium only: 3.62
Whole blood [3]; [17]
  Whole blood IL-2 release, Concentration: 115.9 pg/mL
  Whole blood IL-2 release, Fold-change over medium only: 27.33
Whole blood [3]; [18]
  Whole blood IL-2 release, Concentration: 41.4 pg/mL
  Whole blood IL-2 release, Fold-change over medium only: 0.66
Whole blood [3]; [19]
  Whole blood IL-2 release, Concentration: 55.1 pg/mL
  Whole blood IL-2 release, Fold-change over medium only: 1.31
